Test results published in patent US4141993A, “Compounds of diphenylcyclopentylamine type and methods for their preparation” (priority 1971, dated 1979).
Read-outs that look alike come from different tables or passages of the source.

Legend:
Dopa response = Dopa response potentiation test; format: in vivo, mice; conditions: for L-DOPA potentiation, 10 mg/kg i.p., 1h / L-DOPA potentiation, 10 mg/kg i.p., 4h: score, pargyline pretreated; for L-DOPA potentiation, 10 mg/kg i.p., 1h: drug 1 h before 1-Dopa 100 mg/kg i.p.; for L-DOPA potentiation, 10 mg/kg i.p., 4h: drug 4 h before 1-Dopa 100 mg/kg i.p.
Protocol: Mice in groups of 3 are pretreated with Pargyline® 40 mg/kg p.o. about 10-16 hours before the test. […] 1-Dopa gives a characteristic syndrome which is scored as follows:
1. piloerection, slight salivation, slight increased motor activity
2. piloerection, salivation, marked increased motor activity and irritability
3. piloerection, profuse salivation, marked irritability and reactivity, jumping, squeaking, fighting.
The control groups are Amitriptyline (20 mg/kg i.p. 4 hours before 1-Dopa) and saline (1 hour before 1-Dopa). […] The test drugs were all tested at 10 mg/kg i.p.

[1] = test system: uptake of tritiated noradrenaline; test: Inhibition of the uptake of tritiated noradrenaline in vivo (drug i.p., uptake in cortex slices); conditions: for ED50: ip, 1 h, read-out: Inhibition (50 %) of uptake in vivo, NA (ED50), i.p., half or one hour before the animals were killed
Protocol: (§1) 2. Inhibition of the uptake of tritiated noradrenaline in vitro and in vivo
(§2) The animals were killed half or one hour after the administration of the drugs in vivo (i.p.). The slices, made from cortex, were preincubated for five minutes and incubated with 0.1 μmole per ml of ^3 H-noradrenaline for further five minutes. The incubation mixture consisted of 0.2 μmole of ^3 H-NA and the brain slices in 2 ml of Krebs-Henseleits buffer, pH 7.4. The radioactive ^3 H-NA taken up in the slices was extracted with ethanol and the amount was determined by liquid scintillation. The dose producing 50 percent decrease of the active uptake (ED50) was determined graphically from dose response curves. At least four animals were used at each dose level.

5-HTP response = 5-HTP response potentiation test; format: in vivo, mice; conditions: 0 = without effect; for 5-HTP potentiation, 25 mg/kg i.p., 1h: drug 1 h before 5-HTP; for 5-HTP potentiation, 25 mg/kg i.p., 4h: drug 4 h before 5-HTP
Protocol: 1. 5-HTP response potentiation test
Inhibition of the uptake of 5-HT potentiates the effects of administered 5-hydroxytryptophane (5-HTP) probably by increasing the amount of 5-HT at the receptor.
These small movements are quantitatively measured in an activity box, type Animex, which can distinguish between small and gross movements. The activity is measured during 20 minutes and only in the case the animals have a fullblown syndrome.

mice [2] = test: Motor activity in mice (exploratory activity, locomotion cage); format: in vivo; conditions: Mus musculus, ip, 1 h, read-out: Motor activity ID50
Protocol: The exploratory activity of mice was recorded in a locomotion cage in which the movements were counted each time the animals cross-circuit an electrical current in the bottom plate. The activity was recorded for ten minutes one hour after the administration of the drug. The animals were tested individually. Groups of six mice were used and the mice were only used once. The activity was expressed in percent of the activity of control groups ran simultaneously.

uptake of tritiated 5-HT [3] = test: Inhibition of the uptake of tritiated 5-HT in vitro (midbrain slices); format: biochemical, mice; conditions: for Inhibition (50 %) of uptake in vitro, 5-HT: 5-hydroxytryptamine 10^-7 M
Protocol: (§3) 1. Inhibition of the uptake of tritiated 5-HT in vitro and in vivo
[…] out and sliced and incubated in a mixture consisting of, per 100 mg of brain slices, […] 2 ml of Krebs-Henseleit buffer, pH 7.4. The incubation time was 5 minutes with 5 minutes of preincubation before ^3 H-5-HT was added. The radioactive ^3 H-5-HT taken up in the slices was extracted with ethanol and the amount was determined by liquid scintillation. […] Active uptake is defined as that part of the radioactive uptake which is inhibited by a high concentration of cocaine. All doses were given at least to four animals.

uptake of tritiated 5-HT [4] = test: Inhibition of the uptake of tritiated 5-HT in vivo (drug i.p., uptake in midbrain slices); parameters: species or system mice; conditions: for ED50: Mus musculus, ip, 0.5 h, read-out: Inhibition (50 %) of uptake in vivo, 5-HT (ED50), i.p., half an hour before the animals were killed
Protocol: as §3
The drugs were administered intraperitoneally half an hour before the animals were killed and the midbrain was taken out and sliced and incubated in a mixture consisting of, per 100 mg of brain slices, 0.2 μmole of ^3 H-5-HT and 1 μmole of glucose in 2 ml of Krebs-Henseleit buffer, pH 7.4. The incubation time was 5 minutes with 5 minutes of preincubation before ^3 H-5-HT was added. The radioactive ^3 H-5-HT taken up in the slices was extracted with ethanol and the amount was determined by liquid scintillation. […] Active uptake is defined as that part of the radioactive uptake which is inhibited by a high concentration of cocaine. All doses were given at least to four animals.

Acute toxicity in mice = conditions: mouse, in vivo, iv, within 24 hours
Protocol: (§4) Acute toxicity, behavior and anticholinergic effect (mydriasis) in mice
(§5) The compounds were given by intravenous route to 3 mice. […] Seizures, gait, sedation and grip strength were recorded. […] PD200 is the dose which increases the pupil by 200%.

mice [5] = test: Anticholinergic effect (mydriasis) in mice; format: in vivo
Protocol: as §4, §5

[6] = test system: uptake of tritiated noradrenaline; test: Inhibition of the uptake of tritiated noradrenaline in vitro (cortex slices); format: biochemical; conditions: for Inhibition (50 %) of uptake in vitro, NA: dl-noradrenaline 10^-7 M
Protocol: as §1
as §2, with “The method is found in European Journal of Pharmacology 2 (1967), 181- 186. The animals” for “The animals”
Inhibition (50 %) of uptake
^2) Na = dl-noradrenaline 10^-7 M

[7] = i.p., one hour after administration
[8] = i.v., 10 minutes after injection, dose which increases the pupil by 200%

Structure (SMILES)	Dopa response score of control (Dopa response; 20 mg/kg i.p. 4 hours before 1-Dopa)	ED50 [1]	5-HTP potentiation, 25 mg/kg i.p., 1h (5-HTP response)	ED50 (mice [2]; [7])	Inhibition (50 %) of uptake in vitro, 5-HT (uptake of tritiated 5-HT [3])	inhibition of uptake of 5-hydroxytryptamine in vitro, in words (uptake of tritiated 5-HT [3])	L-DOPA potentiation, 10 mg/kg i.p., 1h (Dopa response)	L-DOPA potentiation, 10 mg/kg i.p., 4h (Dopa response)	ED50 (uptake of tritiated 5-HT [4])	LD50 at 24 h (Acute toxicity in mice)	Mydriasis PD200 (mice [5]; mouse, in vivo, iv, 10 min)	Inhibition (50 %) of uptake in vitro, NA [6]	inhibition of uptake of noradrenaline in vitro, in words [6]	ED50 (mice [2])	Mydriasis PD200 (mice [5]; [8])	inhibition of uptake of noradrenaline in vivo, in words [1]	5-HTP potentiation, 25 mg/kg i.p., 4h (5-HTP response)	selectivity towards noradrenaline ([1]; uptake inhibition, compared with imipramine)	inhibition of uptake of 5-hydroxytryptamine in vivo, in words (uptake of tritiated 5-HT [4]; in vivo)	L-DOPA potentiation, entry given as a bound (no score) (Dopa response; printed in the 1h column, head 10 mg/kg i.p.)
CN(C)CCC=C1c2ccccc2CCc2ccccc21 [Amitriptyline, reference compound]	three																			
CNC1CCC(c2ccccc2)(c2ccccc2)C1 (stereo not drawn) [PUB 107, 1-methylamino-3,3-diphenylcyclopentane]		20 mg/kg	0	> 50 mg/kg	1 µg/mL	potent inhibitors	2	2	> 40 mg/kg	30 mg/kg	15 mg/kg	0.7 µg/mL	potent inhibitors							
CN(C)C1CCC(c2ccccc2)(c2ccccc2)C1 (stereo not drawn) [PUB 112, 1-dimethylamino-3,3-diphenylcyclopentane]		25 mg/kg	25		0.7 µg/mL	potent inhibitors	2.5	2	> 40 mg/kg	18 mg/kg		0.4 µg/mL	potent inhibitors	> 50 mg/kg	< 1 mg/kg					
CN(C)CC1CCC(c2ccccc2)(c2ccccc2)C1 (stereo not drawn) [PUE 117, 1-dimethylaminomethyl-3,3-diphenylcyclopentane]		17 mg/kg	0		3.6 µg/mL		3	1.5	> 40 mg/kg	30 mg/kg		2.3 µg/mL		> 50 mg/kg	< 1 mg/kg					
NCC1CCC(c2ccccc2)(c2ccccc2)C1 (stereo not drawn) [PUE 119, 1-aminomethyl-3,3-diphenylcyclopentane]			0		0.34 µg/mL	considerably weaker effect	1.5	1.5	> 40 mg/kg	22 mg/kg		0.025 µg/mL	strongly effective	> 50 mg/kg	2.5 mg/kg	Strong inhibition of the uptake of noradrenaline only	0			
CNCC1CCC(c2ccccc2)(c2ccccc2)C1 (stereo not drawn) [PUE 122, 1-methylaminomethyl-3,3-diphenylcyclopentane]		5.5 mg/kg	0	> 50 mg/kg	4.2 µg/mL	considerably weaker effect	3	3	> 40 mg/kg	15 mg/kg	> 12.5 mg/kg	0.05 µg/mL	strongly effective			Strong inhibition of the uptake of noradrenaline only				
CN(C)C1CCC(c2ccccc2)(c2ccc(Cl)cc2)C1 (stereo not drawn) [PUN 123, 1-dimethylamino-3-(4-chlorophenyl)-3-phenylcyclopentane]		30 mg/kg	25	> 50 mg/kg	1 µg/mL	potent inhibitors		3	40 mg/kg	30 mg/kg	< 10 mg/kg	1 µg/mL	potent inhibitors			strong inhibition	0	substantially nonselective ability towards noradrenaline	strong inhibition	
CNC1CCC(c2ccccc2)(c2ccc(Cl)cc2)C1 (stereo not drawn) [PUN 125, 1-methylamino-3-(4-chlorophenyl)-3-phenylcyclopentane]		> 40 mg/kg	0		2 µg/mL		1	1	> 40 mg/kg			1 µg/mL								
COc1ccc(C2(c3ccccc3)CCC(N)C2)cc1 (stereo not drawn) [PUT 104, 1-amino-3-(4-methoxyphenyl)-3-phenylcyclopentane]		> 40 mg/kg	> 25		0.5 µg/mL	potent inhibitors			> 40 mg/kg	> 40 mg/kg	> 40 mg/kg	1 µg/mL	potent inhibitors							> 10
